The structures appear in SMILES notation.

For the assay, the system named is immobilized mannose isomerase. The note with it: 0.4 g immobilized enzyme, 40° C., 5 ml of 0.1M sugar solution, after 18 hours. How it is done:
Mannose isomerase activity was typically determined at 40° C. using a feedstock containing 0.1M D-mannose and 0.2M Tris buffer at pH 6.5. Mannose isomerase activity was determined in extracts primarily by measuring mannose-dependent formation of fructose according to the method described by J. H. Roe, J Biol. Chem. 107: 15-19 (1934). Assay mixtures (1 ml) containing 200 mM Tris buffer, pH 7, 100 mM D-mannose, and appropriately diluted cell extract were incubated at 40° C. After 15 min., 0.2 ml of each reaction mixture was transferred to a separate tube and 0.2 ml of ethanol containing 0.1% (wt/vol) resorcinol and 0.6 ml of 10N HCl was added. The tubes were incubated at 80° C. for 8 min, and then placed in ice water to stop the reaction. The absorbance at 484 nm was determined and compared to a standard curve relating absorbance to fructose concentration. An absorbance of 0.1 was equivalent to 150 nmoles of fructose per ml of assay mixture. The conversion of mannose to fructose (as well as any reactions with other sugars) was also determined using HPLC and known standards.
A similar set of experiments was used to test the behavior of the enzyme in the presence of other sugar substrates. For such experiments a mixed sugar feed was prepared approximating the ratios of hemicellulose-derived sugars identified in sulfite waste liquor streams and containing (in grams per liter of 0.2M Tris buffer at pH 7) galactose (15.9), glucose (15.9), mannose (40.3), arabinose (8.0), and xylose (15.2),.
As to `O=C[C@H](O)[C@@H](O)[C@@H](O)[C@H](O)CO` [D-galactose], the loss of sugar result is on record as “no detectable loss”.

Take `O=C[C@@H](O)[C@@H](O)[C@H](O)CO` [D-lyxose]: the loss of sugar entry was “no detectable loss”.

With `O=C[C@H](O)[C@@H](O)[C@H](O)CO` [D-xylose], the loss of sugar entry was “no detectable loss”.

Take `O=C(CO)[C@@H](O)[C@H](O)CO` [D-xylulose]: the loss of sugar result is recorded as “no detectable loss”.

Regarding `O=C[C@H](O)[C@@H](O)[C@@H](O)CO` [L-arabinose], the loss of sugar entry is listed as “no detectable loss”.

Regarding `O=C[C@H](O)[C@H](O)[C@@H](O)[C@@H](O)CO` [L-mannose], the loss of sugar entry is “no detectable loss”.

Consider `C[C@H](O)[C@H](O)[C@@H](O)[C@@H](O)C=O` [L-rhamnose], for which the loss of sugar entry was “no detectable loss”.

(Values after patent US5049494A, “Conversion of mannose to fructose” (Allied-Signal Inc., priority 1989, dated 1991).)
